Test results as given in patent US8802597B2, “Herbicidal pyrimidines” (E I du Pont de Nemours and Company, priority 2003, dated 2014).
Like-named read-outs stand apart in the source and are kept apart here.

How the values were obtained:
Format in all cases: in vivo
[1] = test system: blackgrass (Alopecurus myosuroides); experiment: Test B postemergence; details: Alopecurus myosuroides, post-emergence, 62 g ai/ha, scale 0 to 100 (0 no effect, 100 complete control), read-out: Blackgrass plant response rating
Method in brief: (§1)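 Plants treated pre- or postemergence were compared visually with controls after 13 to 15 days. Ratings ran from 0, no effect, to 100, complete control.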

[2] = test system: wild oat (Avena fatua); experiment: Test B postemergence; details: Avena fatua, post-emergence, scale 0 to 100 (0 no effect, 100 complete control), read-out: Oat, Wild plant response rating
Method in brief: as §1

[3] = test system: umbrella sedge (Cyperus difformis); experiment: Test B flooded paddy test; details: Cyperus difformis, Flood, scale 0 to 100, read-out: Plant response rating, Sedge, Umbrella
Method in brief: (§2)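 Rice, umbrella sedge, duck salad and barnyardgrass grown to 2-leaf stage under flooded paddy conditions and treated with formulated test chemicals. Kept in greenhouse 13–15 days, then visually rated against untreated controls on a 0–100 scale (0 no effect, 100 complete control).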

[4] = test system: rice (Oryza sativa); experiment: Test B flooded paddy test; details: Oryza sativa, Flood, scale 0 to 100, read-out: Plant response rating, Rice
Method in brief: as §2

[5] = test system: duck salad (Heteranthera limosa); experiment: Test B flooded paddy test; details: Heteranthera limosa, Flood, scale 0 to 100, read-out: Plant response rating, Ducksalad
Method in brief: as §2

[6] = test system: barnyardgrass (Echinochloa crus-galli); experiment: Test B flooded paddy test; details: Echinochloa crus-galli, Flood, scale 0 to 100, read-out: Plant response rating, Barnyardgrass
Method in brief: as §2

[7] = test system: giant foxtail (Setaria faberii); experiment: Test B pre/postemergence; details: Setaria faberi; for pest or weed control at 125 g/ha: 125 g ai/ha; for pest or weed control at 62 g/ha: 62 g ai/ha
Method in brief: as §1

[8] = test system: corn (Zea mays); experiment: Test B pre/postemergence; details: Zea mays
Method in brief: as §1

[9] = test system: lambsquarters (Chenopodium album); experiment: Test B pre/postemergence; details: Chenopodium album, post-emergence, Postemergence, scale 0 to 100 (0 no effect, 100 complete control), read-out: Lambsquarters plant response rating
Method in brief: as §1

[10] = test system: cocklebur (Xanthium strumarium); experiment: Test B pre/postemergence; details: Xanthium strumarium; for pest or weed control at 62 g/ha: 62 g ai/ha; for pest or weed control at 125 g/ha: 125 g ai/ha
Method in brief: as §1

[11] = test system: wheat (Triticum aestivum); experiment: Test B pre/postemergence; details: Triticum aestivum, scale 0 to 100 (0 no effect, 100 complete control); for plant injury at 62 g/ha: 62 g ai/ha; for plant injury at 125 g/ha: 125 g ai/ha
Method in brief: as §1

[12] = test system: Surinam grass (Brachiaria decumbens); experiment: Test B pre/postemergence; details: Urochloa decumbens; for pest or weed control at 125 g/ha: 125 g ai/ha; for pest or weed control at 62 g/ha: 62 g ai/ha
Method in brief: as §1

[13] = test system: morningglory (Ipomoea coccinea); experiment: Test B pre/postemergence; details: Ipomoea; for pest or weed control at 62 g/ha: 62 g ai/ha; for pest or weed control at 125 g/ha: 125 g ai/ha
Method in brief: as §1

[14] = test system: crabgrass (Digitaria sanguinalis); experiment: Test B pre/postemergence; details: Digitaria sanguinalis; for pest or weed control at 62 g/ha: 62 g ai/ha; for pest or weed control at 125 g/ha: 125 g ai/ha
Method in brief: as §1

[15] = test system: barnyardgrass (Echinochloa crus-galli); experiment: Test B pre/postemergence; details: Echinochloa crus-galli, post-emergence, Postemergence, scale 0 to 100 (0 no effect, 100 complete control), read-out: Barnyardgrass plant response rating
Method in brief: as §1

[16] = test system: velvetleaf (Abutilon theophrasti); experiment: Test B pre/postemergence; details: Abutilon theophrasti; for pest or weed control at 62 g/ha: 62 g ai/ha; for pest or weed control at 125 g/ha: 125 g ai/ha
Method in brief: as §1

[17] = test system: pigweed (Amaranthus retroflexus); experiment: Test B pre/postemergence; details: Amaranthus retroflexus, post-emergence, Postemergence, scale 0 to 100 (0 no effect, 100 complete control), read-out: Pigweed plant response rating
Method in brief: as §1

[18] = post-emergence, Postemergence, scale 0 to 100 (0 no effect, 100 complete control), read-out: Foxtail, Giant plant response rating
[19] = post-emergence, Postemergence, scale 0 to 100 (0 no effect, 100 complete control), read-out: Cocklebur plant response rating
[20] = post-emergence, Postemergence, read-out: Wheat plant response rating
[21] = pre-emergence, Preemergence, read-out: Plant response rating, Wheat
[22] = post-emergence, Postemergence, scale 0 to 100 (0 no effect, 100 complete control), read-out: Surinam Grass plant response rating
[23] = post-emergence, Postemergence, scale 0 to 100 (0 no effect, 100 complete control), read-out: Morningglory plant response rating
[24] = post-emergence, Postemergence, scale 0 to 100 (0 no effect, 100 complete control), read-out: Crabgrass plant response rating
[25] = post-emergence, Postemergence, scale 0 to 100 (0 no effect, 100 complete control), read-out: Velvetleaf plant response rating

Nc1nc(-c2ccc(Br)cc2)nc(C(=O)O)c1Cl [Compound 95, 6-amino-2-(4-bromophenyl)-5-chloro-4-pyrimidinecarboxylic acid]
pest or weed control at 62 g/ha [1]: 60% | pest or weed control at 62 g/ha ([2]; 62 g ai/ha): 30% | pest or weed control at 125 g/ha ([2]; 125 g ai/ha): 60% | pest or weed control at 125 g/ha ([3]; 125 g ai/ha): 90% | pest or weed control at 500 g/ha ([3]; 500 g ai/ha): 90% | plant injury at 125 g/ha ([4]; 125 g ai/ha): 0% | plant injury at 500 g/ha ([4]; 500 g ai/ha): 40% | pest or weed control at 125 g/ha ([5]; 125 g ai/ha): 90% | pest or weed control at 500 g/ha ([5]; 500 g ai/ha): 100% | pest or weed control at 125 g/ha ([6]; 125 g ai/ha): 0% | pest or weed control at 500 g/ha ([6]; 500 g ai/ha): 30% | pest or weed control at 125 g/ha [7, 18]: 80% | pest or weed control at 62 g/ha [7, 18]: 80% | pest or weed control at 125 g/ha ([7]; pre-emergence, Preemergence, scale 0 to 100 (0 no effect, 100 complete control), read-out: Plant response rating, Foxtail, Giant): 90% | pest or weed control at 62 g/ha ([7]; pre-emergence, Preemergence, scale 0 to 100, 0 no effect, 100 complete control, read-out: Plant response rating, Foxtail, Giant): 50% | plant injury at 62 g/ha ([8]; post-emergence, Postemergence, 62 g ai/ha, scale 0 to 100 (0 no effect, 100 complete control), read-out: Corn plant response rating): 80% | plant injury at 125 g/ha ([8]; post-emergence, Postemergence, 125 g ai/ha, scale 0 to 100 (0 no effect, 100 complete control), read-out: Corn plant response rating): 90% | Corn plant response rating (crop injury, 0 = no effect, 100 = complete kill) at 62 g/ha ([8]; pre-emergence, Preemergence, 62 g ai/ha, scale 0 to 100, 0 no effect, 100 complete control): 40% | Corn plant response rating (crop injury, 0 = no effect, 100 = complete kill) at 125 g/ha ([8]; pre-emergence, Preemergence, 125 g ai/ha, scale 0 to 100 (0 no effect, 100 complete control)): 80% | pest or weed control at 62 g/ha ([9]; 62 g ai/ha): 100% | pest or weed control at 125 g/ha ([9]; 125 g ai/ha): 100% | pest or weed control at 62 g/ha [10, 19]: 90% | pest or weed control at 125 g/ha [10, 19]: 90% | pest or weed control at 62 g/ha ([10]; pre-emergence, Preemergence, scale 0 to 100, 0 no effect, 100 complete control, read-out: Plant response rating, Cocklebur): 90% | pest or weed control at 125 g/ha ([10]; pre-emergence, Preemergence, scale 0 to 100 (0 no effect, 100 complete control), read-out: Plant response rating, Cocklebur): 100% | plant injury at 62 g/ha [11, 20]: 40% | plant injury at 125 g/ha [11, 20]: 50% | plant injury at 62 g/ha [11, 21]: 70% | plant injury at 125 g/ha [11, 21]: 80% | pest or weed control at 125 g/ha [12, 22]: 90% | pest or weed control at 62 g/ha [12, 22]: 80% | pest or weed control at 125 g/ha ([12]; pre-emergence, Preemergence, scale 0 to 100 (0 no effect, 100 complete control), read-out: Plant response rating, Surinam Grass): 100% | pest or weed control at 62 g/ha ([12]; pre-emergence, Preemergence, scale 0 to 100, 0 no effect, 100 complete control, read-out: Plant response rating, Surinam Grass): 50% | pest or weed control at 62 g/ha [13, 23]: 90% | pest or weed control at 125 g/ha [13, 23]: 100% | pest or weed control at 62 g/ha ([13]; pre-emergence, Preemergence, scale 0 to 100, 0 no effect, 100 complete control, read-out: Plant response rating, Morningglory): 30% | pest or weed control at 125 g/ha ([13]; pre-emergence, Preemergence, scale 0 to 100 (0 no effect, 100 complete control), read-out: Plant response rating, Morningglory): 60% | pest or weed control at 62 g/ha [14, 24]: 80% | pest or weed control at 125 g/ha [14, 24]: 80% | pest or weed control at 62 g/ha ([14]; pre-emergence, Preemergence, scale 0 to 100, 0 no effect, 100 complete control, read-out: Plant response rating, Crabgrass): 80% | pest or weed control at 125 g/ha ([14]; pre-emergence, Preemergence, scale 0 to 100 (0 no effect, 100 complete control), read-out: Plant response rating, Crabgrass): 100% | pest or weed control at 62 g/ha ([15]; 62 g ai/ha): 90% | pest or weed control at 125 g/ha ([15]; 125 g ai/ha): 90% | pest or weed control at 62 g/ha [16, 25]: 100% | pest or weed control at 125 g/ha [16, 25]: 100% | pest or weed control at 62 g/ha ([16]; pre-emergence, Preemergence, scale 0 to 100, 0 no effect, 100 complete control, read-out: Plant response rating, Velvetleaf): 80% | pest or weed control at 125 g/ha ([16]; pre-emergence, Preemergence, scale 0 to 100 (0 no effect, 100 complete control), read-out: Plant response rating, Velvetleaf): 100% | pest or weed control at 62 g/ha ([17]; 62 g ai/ha): 100% | pest or weed control at 125 g/ha ([17]; 125 g ai/ha): 100%
